Values after ≈ are worked out from the molar mass of the structure shown.
Columns and labels:
[1] = test system: P. multo 43719; experiment: Dilution antimicrobial susceptibility test (M07-A8), P. multocida; assay type: cell-based; details: Pasteurella multocida; antibacterial activity by dilution susceptibility test, isolate 43719
Procedure: (§1) Compounds of the present invention were tested against an assortment of Gram-negative and Gram-positive organisms using the industrial standard techniques described in Methods for Dilution Antimicrobial Susceptibility Tests for Bacteria That grow Aerobically; Approved Standard-Eighth Edition, […]-A8, Vol. 29 No. 2 Replaces […]-A7 Vol. 26 No. 2. […] When comparing the activity against these isolates with that of the marketed human health drug of cefepime (screened in the same panel), the exemplified compounds of the present invention show >200 times more selectivity over E. coli.

[2] = test system: E. coli 25922; experiment: Dilution antimicrobial susceptibility test (M07-A8), E. coli; assay type: cell-based, Escherichia coli; details: for MIC: Escherichia coli, antibacterial activity by dilution susceptibility test, isolate 25922; for E. coli/P. multocida: selectivity for P. multocida over E. coli (ratio of the two values)
Procedure: as §1

[3] = test system: M. haemo 43411; experiment: Dilution antimicrobial susceptibility test (M07-A8), M. haemolytica; assay type: cell-based; details: Mannheimia haemolytica; antibacterial activity by dilution susceptibility test, isolate 43411
Procedure: as §1

SMILES | MIC [1] [µg/mL] | MIC [2] [µg/mL] | E. coli/P. multocida [2] | MIC [3] [µg/mL]
CNS(=O)(=O)c1ccc(C)c(CC2=C(C(=O)O)N3C(=O)[C@@H](NC(=O)/C(=N\OC)c4csc(N)n4)[C@H]3SC2)c1 [Example 24, (6R,7R)-7-{[(2Z)-2-(2-amino-1,3-thiazol-4-yl)-2-(methoxyimino)acetyl]amino}-3-[2-methyl-5-(methylsulfamoyl)benzyl]-8-oxo-5-thia-1-azabicyclo[4.2.0]oct-2-ene-2-carboxylic acid] | 0.015 (≈ 0.0258 µM) | 4 (≈ 6.89 µM) | 266 | 0.008 (≈ 0.0138 µM)
CO/N=C(\C(=O)N[C@@H]1C(=O)N2C(C(=O)O)=C(Cc3cccc(S(=O)(=O)N(C)C)c3)CS[C@H]12)c1csc(N)n1 [Example 25, (6R,7R)-7-{[(2Z)-2-(2-amino-1,3-thiazol-4-yl)-2-(methoxyimino)acetyl]amino}-3-[3-(dimethylsulfamoyl)benzyl]-8-oxo-5-thia-1-azabicyclo[4.2.0]oct-2-ene-2-carboxylic acid] | 0.008 (≈ 0.0138 µM) | 8 (≈ 13.8 µM) | 1000 | 0.008 (≈ 0.0138 µM)
CNS(=O)(=O)c1cc(C)cc(CC2=C(C(=O)O)N3C(=O)[C@@H](NC(=O)/C(=N\OC)c4csc(N)n4)[C@H]3SC2)c1 [Example 27, (6R,7R)-7-{[(2Z)-2-(2-amino-1,3-thiazol-4-yl)-2-(methoxyimino)acetyl]amino}-3-[3-methyl-5-(methylsulfamoyl)benzyl]-8-oxo-5-thia-1-azabicyclo[4.2.0]oct-2-ene-2-carboxylic acid] | 0.015 (≈ 0.0258 µM) | 8 (≈ 13.8 µM) | 533 | 0.008 (≈ 0.0138 µM)
CO/N=C(\C(=O)N[C@@H]1C(=O)N2C(C(=O)O)=C(Cc3ccc(S(C)(=O)=O)cc3C)CS[C@H]12)c1csc(N)n1 [Example 28, (6R,7R)-7-{[(2Z)-2-(2-amino-1,3-thiazol-4-yl)-2-(methoxyimino)acetyl]amino}-3-[2-methyl-4-(methylsulfonyl)benzyl]-8-oxo-5-thia-1-azabicyclo[4.2.0]oct-2-ene-2-carboxylic acid] | 0.03 (≈ 0.053 µM) | 4 (≈ 7.07 µM) | 133 | 0.06 (≈ 0.106 µM)

More lines, in order of falling MIC [1], values ahead:

MIC [1] [µg/mL] | MIC [2] [µg/mL] | SMILES | E. coli/P. multocida [2] | MIC [3] [µg/mL]
0.25 (≈ 0.374 µM) | 64 (≈ 95.7 µM) | CO/N=C(\C(=O)N[C@@H]1C(=O)N2C(C(=O)O)=C(Cc3cc(S(=O)(=O)NCCSC(C)=O)ccc3C)CS[C@H]12)c1csc(N)n1 [Example 20, (6R,7R)-3-(5-{[2-(acetylsulfanyl)ethyl]sulfamoyl}-2-methylbenzyl)-7-{[(2Z)-2-(2-amino-1,3-thiazol-4-yl)-2-(methoxyimino)acetyl]amino}-8-oxo-5-thia-1-azabicyclo[4.2.0]oct-2-ene-2-carboxyl is acid] | 256 | 0.25 (≈ 0.374 µM)
0.25 (≈ 0.419 µM) | 64 (≈ 107 µM) | CNS(=O)(=O)c1ccc(OC)c(CC2=C(C(=O)O)N3C(=O)[C@@H](NC(=O)/C(=N\OC)c4csc(N)n4)[C@H]3SC2)c1 [Example 22, (6R,7R)-7-{[(2Z)-2-(2-amino-1,3-thiazol-4-yl)-2-(methoxyimino)acetyl]amino}-3-[2-methoxy-5-(methylsulfamoyl)benzyl]-8-oxo-5-thia-1-azabicyclo[4.2.0]oct-2-ene-2-carboxylic acid] | 256 | 0.125 (≈ 0.209 µM)
0.125 (≈ 0.221 µM) | 16 (≈ 28.2 µM) | CNS(=O)(=O)c1cccc(CC2=C(C(=O)O)N3C(=O)[C@@H](NC(=O)/C(=N\OC)c4csc(N)n4)[C@H]3SC2)c1 [Example 23, (6R,7R)-7-{[(2Z)-2-(2-amino-1,3-thiazol-4-yl)-2-(methoxyimino)acetyl]amino}-3-[3-(methylsulfamoyl)benzyl]-8-oxo-5-thia-1-azabicyclo[4.2.0]oct-2-ene-2-carboxylic acid] | 128 | 0.06 (≈ 0.106 µM)
0.03 (≈ 0.0439 µM) | 32 (≈ 46.9 µM) | CCN(CCSC(C)=O)S(=O)(=O)c1cccc(CC2=C(C(=O)O)N3C(=O)[C@@H](NC(=O)/C(=N\OC)c4csc(N)n4)[C@H]3SC2)c1 [Example 21, (6R,7R)-3-(3-{[2-(acetylsulfanyl)ethyl](ethyl)sulfamoyl}benzyl)-7-{[(2Z)-2-(2-amino-1,3-thiazol-4-yl)-2-(methoxyimino)acetyl]amino}-8-oxo-5-thia-1-azabicyclo[4.2.0]oct-2-ene-2-carboxylic acid] | 1066 | 0.125 (≈ 0.183 µM)
0.015 (≈ 0.0251 µM) | 4 (≈ 6.7 µM) | CNS(=O)(=O)c1cc(CC2=C(C(=O)O)N3C(=O)[C@@H](NC(=O)/C(=N\OC)c4csc(N)n4)[C@H]3SC2)cc(OC)c1 [Example 26, (6R,7R)-7-{[(2Z)-2-(2-amino-1,3-thiazol-4-yl)-2-(methoxyimino)acetyl]amino}-3-[3-methoxy-5-(methylsulfamoyl)benzyl]-8-oxo-5-thia-1-azabicyclo[4.2.0]oct-2-ene-2-carboxylic acid] | 266 | 0.008 (≈ 0.0134 µM)

— patent publication US8722656B2, “Cephalosporins useful as antibacterial agents” (Zoetis LLC, priority 2011, dated 2014)
